Results on 14 molecules are retold here after publication PMC5520492, “Inhibition of DNA2 nuclease as a therapeutic strategy targeting replication stress in cancer cells” (Oncogenesis, 2017).

One experiment addresses T1, yDna2 (Saccharomyces cerevisiae, UniProt P38859).
T1 construct: made in house
Kind of experiment: High-throughput fluorescence nuclease assay with yDna2 (triply labeled (dT)30 ssDNA). Format: biochemical, yeast. Conditions: for % Inhibition yDna2 / inhibition at 33.33 µM: screen at fixed inhibitor concentration (33.33 μM), 0.09 nM Dna2; for inhibition at 33.33 µM: read-out: % Inhibition yDna2. On the procedure:
(§1) The screen entailed the use of oligonucleotide (dT)30 having a reporter fluorescent moiety, 6-FAM on the 5′ end, and the dark quenching group, Iowa Black FQ, on the 3′ end. In addition, a second dark quencher ZEN was placed between the 9th and 10th base (Figure 2a). The fluorescence emitted by 6-FAM is quenched by FRET, but it increases when DNA is degraded by Dna2. […] The inhibitory activity of the compounds was determined as a reduction in fluorescent signal compared with the dimethylsulfoxide (DMSO) only control. […] We screened ~50 000 chemical compounds from six different libraries (Supplementary Table S1) to identify chemical inhibitors of the Dna2 nuclease activity. […] The DNA2 nuclease domain is well conserved among eukaryotes, and therefore we reasoned that inhibitors of yDna2 will likely also work with the human counterpart.
(§2) Initial screen, it was performed with yDna2.[22] Then, the top candidate compounds were tested on hDNA2. Identical reaction conditions were used for assaying the nuclease activity of yDna2 and hDNA2. […] The reaction buffer was 20 mM HEPES/NaOH, pH 7.5, 60 mM KCl, 1 mM DTT, 100 μg/ml bovine serum albumin and 0.05% Triton X-100. The nuclease assay was initiated by adding MgCl2 (3 mM final concentration). T5 nuclease was assayed in the buffer (50 mM potassium acetate, pH 7.9, 20 mM Tris-acetate, 10 mM magnesium acetate and 1 mM DTT) provided by the vendor (NEB, Ipswich, MA, USA). The concentration of the fluorogenic substrate was 0.1 μM. The optimal amount of yDna2, hDNA2 and T5 nuclease was determined by utilizing the Kaleidagraph software (Reading, PA, USA) to fit the data according to Michaelis Menton Kinetics (V=V0+Vmax*x/(Km+x)). […] The Z’ value was calculated as previously described.[50] Cell proliferation was determined using 4,6-diamidino-2-phenylindole staining followed by high-throughput microscopy in a 384-well plate setup. In brief, cells were fixed with formaldehyde, washed and stained with 4,6-diamidino-2-phenylindole and the number of nuclei in each well counted by automated microscopy. The data were analyzed as described.[51]

Another experiment has as its system U2OS cells. Description: Cell-based viability/proliferation screen, DAPI staining and automated microscopy. Also on record: species or system human. Conditions: Homo sapiens, 10 pM to 10 μM, DAPI staining, read-out: IC50 from Screening Cell Based. The protocol: The biological effectiveness of the 39 compounds selected by re-screening was determined by measuring their half maximal inhibitory concentration (IC50) biochemically and in a cell-based system using the 384-well platform (Supplementary Table S2). […] We conducted the viability assay in duplicate on three separate occasions using a concentration range of 10 pM to 10 μM for each compound. Cell proliferation was determined using 4,6-diamidino-2-phenylindole staining and microscopy.
In addition, a second dark quencher ZEN (N,N-diethyl-4-(4-nitronaphthalen-1-ylazo)-phenylamine, absorption max.=532 nm) is placed between 9th and 10th base (Figure 2a). Initial screen, it was performed with yDna2.[22] Then, the top candidate compounds were tested on hDNA2. Identical reaction conditions were used for assaying the nuclease activity of yDna2 and hDNA2. […] The reaction buffer was 20 mM HEPES/NaOH, pH 7.5, 60 mM KCl, 1 mM DTT, 100 μg/ml bovine serum albumin and 0.05% Triton X-100. The nuclease assay was initiated by adding MgCl2 (3 mM final concentration). T5 nuclease was assayed in the buffer (50 mM potassium acetate, pH 7.9, 20 mM Tris-acetate, 10 mM magnesium acetate and 1 mM DTT) provided by the vendor (NEB, Ipswich, MA, USA). The concentration of the fluorogenic substrate was 0.1 μM. The optimal amount of yDna2, hDNA2 and T5 nuclease was determined by utilizing the Kaleidagraph software (Reading, PA, USA) to fit the data according to Michaelis Menton Kinetics (V=V0+Vmax*x/(Km+x)). […] All the compounds were dissolved in DMSO and DMSO alone was used as control; the final concentration of DMSO was at 3.33% for protein-based assay and 0.1% for cell-based assay. The Z’ value was calculated as previously described.[50] Cell proliferation was determined using 4,6-diamidino-2-phenylindole staining followed by high-throughput microscopy in a 384-well plate setup. In brief, cells were fixed with formaldehyde, washed and stained with 4,6-diamidino-2-phenylindole and the number of nuclei in each well counted by automated microscopy. The data were analyzed as described.[51]

A further experiment concerns the target T2, T5 nuclease (Escherichia phage T5, UniProt P06229).
T2 construct: purchased NEB
Kind of experiment: T5 nuclease counter-screen (fluorescence nuclease assay). The class given is biochemical. Set-up: concentration or dose not given beside the values. Conditions: re-screening against T5 nuclease. The protocol:
as §1, §2
For orientation: A counterscreen serves to expose hits that act by an unwanted route or on another target.

T1 sequence (P38859 whole entry): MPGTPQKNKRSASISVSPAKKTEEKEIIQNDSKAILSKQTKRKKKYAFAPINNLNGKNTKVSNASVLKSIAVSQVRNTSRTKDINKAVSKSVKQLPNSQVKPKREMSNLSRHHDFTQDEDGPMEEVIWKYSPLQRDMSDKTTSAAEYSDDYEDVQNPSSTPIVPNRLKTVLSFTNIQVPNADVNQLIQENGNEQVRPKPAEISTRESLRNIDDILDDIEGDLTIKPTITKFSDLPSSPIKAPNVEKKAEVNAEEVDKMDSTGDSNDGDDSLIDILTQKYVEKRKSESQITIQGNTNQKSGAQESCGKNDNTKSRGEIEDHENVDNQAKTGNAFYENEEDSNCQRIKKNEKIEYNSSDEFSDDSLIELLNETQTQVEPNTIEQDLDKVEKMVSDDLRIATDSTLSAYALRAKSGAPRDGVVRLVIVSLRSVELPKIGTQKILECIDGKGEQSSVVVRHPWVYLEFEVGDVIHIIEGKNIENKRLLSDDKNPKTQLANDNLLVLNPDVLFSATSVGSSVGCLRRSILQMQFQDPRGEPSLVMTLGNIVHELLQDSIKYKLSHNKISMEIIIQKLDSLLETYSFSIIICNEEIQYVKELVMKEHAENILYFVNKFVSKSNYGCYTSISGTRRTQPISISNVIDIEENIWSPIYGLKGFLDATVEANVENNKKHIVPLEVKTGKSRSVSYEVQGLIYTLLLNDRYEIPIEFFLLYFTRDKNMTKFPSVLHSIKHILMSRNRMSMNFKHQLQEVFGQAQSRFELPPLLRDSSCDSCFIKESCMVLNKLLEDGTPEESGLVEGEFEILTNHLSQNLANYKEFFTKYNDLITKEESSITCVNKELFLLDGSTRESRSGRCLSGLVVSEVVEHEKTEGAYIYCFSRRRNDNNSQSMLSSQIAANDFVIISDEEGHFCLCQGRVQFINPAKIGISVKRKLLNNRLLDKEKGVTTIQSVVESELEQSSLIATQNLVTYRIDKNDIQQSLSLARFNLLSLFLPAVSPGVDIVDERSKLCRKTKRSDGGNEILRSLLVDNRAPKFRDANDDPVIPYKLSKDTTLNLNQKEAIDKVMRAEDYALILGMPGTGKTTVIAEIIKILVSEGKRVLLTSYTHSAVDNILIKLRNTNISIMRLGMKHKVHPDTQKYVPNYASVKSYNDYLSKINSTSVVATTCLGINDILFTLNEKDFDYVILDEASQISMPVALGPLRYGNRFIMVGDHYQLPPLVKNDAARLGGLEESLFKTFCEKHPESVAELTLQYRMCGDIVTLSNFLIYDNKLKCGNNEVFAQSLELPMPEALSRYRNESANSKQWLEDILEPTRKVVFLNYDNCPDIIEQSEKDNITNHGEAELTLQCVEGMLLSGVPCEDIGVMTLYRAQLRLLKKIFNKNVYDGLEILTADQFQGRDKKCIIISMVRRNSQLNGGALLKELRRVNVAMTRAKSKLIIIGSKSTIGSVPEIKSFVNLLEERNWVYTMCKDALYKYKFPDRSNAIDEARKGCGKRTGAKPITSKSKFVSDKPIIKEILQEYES
T2 sequence (P06229 whole entry): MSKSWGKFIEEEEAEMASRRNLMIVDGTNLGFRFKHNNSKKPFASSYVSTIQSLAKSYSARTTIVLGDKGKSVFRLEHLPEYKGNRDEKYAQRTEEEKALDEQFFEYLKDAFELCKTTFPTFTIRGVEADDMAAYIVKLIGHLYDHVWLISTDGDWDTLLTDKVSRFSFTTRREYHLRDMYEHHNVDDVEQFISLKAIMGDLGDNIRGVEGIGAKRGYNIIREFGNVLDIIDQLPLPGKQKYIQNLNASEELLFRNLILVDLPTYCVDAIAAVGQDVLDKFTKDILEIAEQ

As to `CN(C)C/C=C/C(=O)Nc1cc2c(Nc3ccc(F)c(Cl)c3)ncnc2cc1O[C@H]1CCOC1` [BIBW2992, reference compound], the IC50 at yDna2 (compounds that inhibit yDna2 but not T5 nuclease, 384-well platform, read-out: IC50 from Screening In Vitro) was 7.2 µM; in the experiment on U2OS cells, 1200 nM.
As to `CCN(CC)CCCC(C)Nc1nc(C)cc(Nc2ccc3nc(C)cc(N)c3c2)n1` (stereo not shown) [NSC23766, reference compound], the “% Inhibition yDna2” value at yDna2 amounted to 100%. On T5 nuclease, the “% Inhibition T5 nuclease” value is 94.7%.
Consider `c1ccc2c(NCCCCCCCCNc3c4ccccc4nc4ccccc34)c3ccccc3nc2c1` [NSC219734], for which the “% Inhibition yDna2” value on yDna2 was determined as 85%. For the same molecule, on T5 nuclease, the “% Inhibition T5 nuclease” value was found to be 100%.
Turning to `CN1CCN(c2ccc3nc(-c4c(N)c5c(F)cccc5[nH]c4=O)[nH]c3c2)CC1` [(Dovitinib) CHIR258, Dovitinib, reference compound], the inhibition at 33.33 µM at yDna2 stood at 54%. In addition, at T5 nuclease, the “% Inhibition T5 nuclease” value stood at 60.2%.
Turning to `COc1cc(-c2ccc(N=Nc3ccc4c(S(=O)(=O)[O-])cc(S(=O)(=O)[O-])c(N)c4c3O)c(OC)c2)ccc1N=Nc1ccc2c(S(=O)(=O)[O-])cc(S(=O)(=O)[O-])c(N)c2c1O.[Na+].[Na+].[Na+].[Na+]` [Chicago Sky blue 6B, reference compound], the “% Inhibition yDna2” value on yDna2 is on record as 69%. For the same molecule, on T5 nuclease, the “% Inhibition T5 nuclease” value is listed as 100%.
As for `Cl.O=C1c2cccc(NCCCNCCO)c2C(=O)c2cccc(NCCCNCCO)c21` [NSC363998], the “% Inhibition yDna2” value on yDna2 is 99%. At T5 nuclease, the “% Inhibition T5 nuclease” value was determined as 74.5%.
As for `COc1ccc2c(NCCCCCCNc3c4ccccc4nc4cc(OC)ccc34)c3ccccc3nc2c1` [NSC260610], the inhibition at 33.33 µM at yDna2 was 100%. Further, the “% Inhibition T5 nuclease” value at T5 nuclease worked out at 100%.
Regarding `CO[C@H]1C[C@@H]2\C=C(C)/C=C/C=C\C(=O)N[C@H](c3ccccc3)C/C=C/CC[C@H](O)CC(=O)C2=C1O` [NSC343256], the “% Inhibition yDna2” value at yDna2 was determined as 71%. Moreover, the “% Inhibition T5 nuclease” value on T5 nuclease was determined as 72%.
Regarding `Nc1ccc(Cn2ccc3c4c(N)nc(N)nc4ccc32)cc1` [NSC309401], the “% Inhibition yDna2” value on yDna2 amounted to 100%. In addition, the “% Inhibition T5 nuclease” value on T5 nuclease worked out at 100%.
Regarding `COc1ccc2c(C)nc(NC3=NC(C)(C)CC(C)=N3)nc2c1` [Compound 5309857], the “% Inhibition yDna2” value at yDna2 stood at 59.9%. The “% Inhibition T5 nuclease” value at T5 nuclease came to 77.3%.
As to `NC(N)=NCCCS(=O)(=O)Nc1ccc(Nc2c3ccccc3nc3cc([N+](=O)[O-])ccc23)cc1` [NSC177365], the “% Inhibition yDna2” value on yDna2 came to 83.3%. Moreover, the “% Inhibition T5 nuclease” value on T5 nuclease is on record as 100%.
The matching figures for `ClN=C1C=CC=CC1=NCl` [NSC344494]: 51.4% and 97.9%.
For `CC[N+](C)(CC)CCC[n+]1c(-c2ccccc2)c2cc(N)ccc2c2ccc(N)cc21.[I-].[I-]` [Propidium Iodide, reference compound], at yDna2, the “% Inhibition yDna2” value stood at 100%. The “% Inhibition T5 nuclease” value on T5 nuclease amounted to 100%.
On to `Cc1cc(NCCCCCCCNc2cc(C)nc3cc(N)ccc23)c2ccc(N)cc2n1` [NSC273829], for which the inhibition at 33.33 µM on yDna2 was 74.4%. Besides, at T5 nuclease, the “% Inhibition T5 nuclease” value is listed as 56.5%.

Broadly, the IC50 is the point on the concentration scale where inhibition reaches its midpoint. Broadly, the inhibition is the change of the read-out against control, counted positive when it falls.
